In publication PMC5494507, “γ‐Secretase inhibitors in cancer clinical trials are pharmacologically and functionally distinct” (EMBO Molecular Medicine, 2017):

Key:
[1] = tested on: rAPPC100sub and rNOTCH1‐4subs; assay: Cell-free γ-secretase assay, rAPPC100sub and rNOTCH1-4subs (IP-MS); format: biochemical, human; settings: 25 nM
Description: cDNAs encoding NOTCH1, NOTCH2, NOTCH3, NOTCH4, CD44, and VEGFR1 γ‐secretase substrates were generated by gene synthesis conducted by Genscript (Piscataway, NJ, USA). The general design of the constructs was similar to a recombinant substrate (APP C100) that has been used by our group and others to assay Aβ production in in vitro γ‐secretase assays. All constructs contain an NH2‐terminal amyloid β peptide (Aβ) epitope tag followed by the juxtamembrane region (JMD) of the given substrate and a FLAG tag ([…]) at the COOH‐terminal. A schematic representation of the substrates is provided in Fig 1A, and sequences of the cDNAs and the proteins are provided in Appendix Fig S5. For clarity, these substrates are referred to as recombinant substrates (e.g., Notch1 is rNOTCH1sub). Substrate cDNAs were cloned into pET21 (Novagen, Billerica, MA, USA) for expression in bacterial cells.
pET21 plasmids containing the substrate cDNAs were transformed into BL21 E. coli. cells. Overexpression was induced with 0.5 mM isopropyl β‐D‐1‐thiogalactopyranoside (IPTG). […]
Immunoprecipitation and mass spectrometry of Aβ and Aβ‐like peptides in cell‐free assay or conditioned media were performed as previously described (Ran et al, 2014). […] Samples were analyzed using a Bruker Microflex LRF‐MALDI‐TOF mass spectrometer.

[2] = tested on: MDA‐MB‐231 and MDA‐MB‐468 mammospheres; assay: Secondary mammosphere formation / limiting dilution assay and CD44+CD24low flow cytometry; format: cell-based
Description: Suppression of breast cancer stem cells is thought to be a key mechanism of action for the anti‐tumor activity of GSIs in breast cancer models and in patient‐derived mammospheres (Takebe et al, 2015). […] Stem‐like cells are enriched in secondary mammospheres, but their number declines after four to five passages (Dontu et al, 2003; Dey et al, 2009). Therefore, we compared the GSIs in a secondary mammosphere formation assay at 1, 5, and 10 μM concentrations (Fig 7A and B for 10 μM and Appendix Fig S4 for 1 and 5 μM). We separately counted large mammospheres (> 500 μm in diameter) and small mammospheres (100–500 μm in diameter).
For limiting dilution assay, we used two distinct TNBC cell lines. MDA‐MB‐231 is molecularly “Mesenchymal”, PTEN wild type. MDA‐MB‐468 (ATCC, Manassas, VA) is molecularly “Basal‐like” and PTEN null. GSI‐treated (1, 5, and 10 μM twice/week, for 1 week) mammospheres were dissociated by trypsinization, and equal numbers of viable cells were re‐plated at clonal density (1,000, 100, and 10 cells) without GSIs. After 7‐day incubation, large mammospheres (> 500 μm) and small mammospheres (100–500 μm) were counted manually using a Nikon Eclipse Microscope. Next, we investigated whether PF‐3084014 selectively affected cancer stem‐like cells (CSCs) using both MDA‐MB‐231 and MDA‐MB‐468 cell lines. Mammospheres were treated with increasing concentration of PF‐3084014 for 1 week, and CSCs (CD44^+CD24^low) (Azzam et al, 2013) were analyzed by flow cytometry using anti‐human PE‐CD44 (Clone G44‐26) and FITC‐CD24 (Clone ML5) (BD Biosciences) antibody.

CN1C(=O)[C@@H](NC(=O)[C@H](CCC(F)(F)F)[C@H](CCC(F)(F)F)C(N)=O)N=C(c2ccccc2)c2ccccc21 [BMS‐906024]
cleavage of the rAPPC100sub and rNOTCH1‐4subs [1]: completely blocked cleavage

CCC[C@H](N[C@H]1CCc2cc(F)cc(F)c2C1)C(=O)Nc1cn(C(C)(C)CNCC(C)(C)C)cn1 [PF‐3084014]
absolute cell counts of mammospheres ([2]; 5 and 10 μM, both cell lines): significantly more potent than the other compounds
percentage of CD44+CD24low cells ([2]; all concentrations tested, flow cytometry): decrease in percentage
total cell number and CSC fraction ([2]; both cell lines, 1 week treatment): decreased the total cell number and the CSC fraction
absolute numbers of CD44+CD24low cells ([2]; flow cytometry): dose‐dependent decrease
